For experiment [1], the system named is P. aeruginosa (ATCC® 15442). In words: Inhibition of biofilm formation, crystal violet staining assay. The experiment is classed as cell-based, Pseudomonas aeruginosa. The following applies: for Biofilm (OD 595 nm): 24 hr; for Biofilm (OD 595 nm) / biofilm formed (CVSA), in words: 30° C.; for inhibition of biofilm formation, conclusion in words: any dose tested; for biofilm formed (CVSA), in words: concentrations less than 125 ug/ml. How it is done:
A stock solution of 1000 ug of V and capsaicin was prepared by dissolving 1000 μg in 100 μl of ethanol and 900 μl of sterile water. The stock solutions were sequentially diluted with […] of solvent (10% aqueous ethanol solution) to yield 500/125//31.25/7.81 μg/ml test solutions.
P. aeruginosa (ATCC® 15442) was used to determine the biofilm inhibition activity. Inducer N-hexanoyl homoserine lactone (C6-HSL) was purchased from Sigma-Aldrich. ATCC® 15442 was cultivated in Luria-Bertani (LB) medium (LB, 5 g yeast extract, 10 g tryptone, 5 g NaCl, 1 L water) at 30° C. overnight under aerobic conditions.
(§1) Biofilm formation was quantified with modifications using the method described by Stepanovic et al. (Journal of Microbiological Methods, 2000, 40(2), 175-19) with modifications. Using a 96-well microplate duplicate the test solutions were filled at the above selected doses. Cultures were grown for 18 hr in LB at 30° C. and adjusted to OD 0.1 at 600 nm. 20 μL of the culture were added into each well and the remainder of the volume to 200 μL per well was filled with LB. Unused external wells were filled with 200 μL of sterile water to prevent evaporation.
(§2) After 24 hr of incubation, supernatants were discarded, and the wells were washed three times with 200 μL of sterile phosphate buffered saline (PBS). Bacteria adhered to the wells were fixed with 200 μL of methanol for 15 min, the methanol was discarded, and the plates dried at 25° C.
(§3) Each well was stained with 200 μL of 0.3% (w/v) crystal violet solution for 5 min at 25° C. Crystal violet excess was pipetted out, and the wells were rinsed five times with sterile PBS. 200 μL of 33% (v/v) glacial acetic acid were added to the wells for 30 min to solubilise the dye adhered to the cell walls. Optical density (OD) was measured at 595 nm using a microplate spectrophotometer as a direct measure of biofilm formation. P. aeruginosa in 3% DMSO will be used as the negative control.

The test system of experiment [2] is Salmonella enterica subsp. enterica serovar Paratyphi C (ATCC® BAA 1714™). In words: Inhibition of biofilm formation, crystal violet staining assay (Example 5). The experiment is classed as cell-based. The conditions noted are these: for Biofilm (OD 595 nm): 24 hr; for Biofilm (OD 595 nm) / biofilm formed (CVSA), in words: 30° C.; for biofilm formed (CVSA), in words: 32 and 8 μg/ml. As to the method: as §1, §2, §3
A stock solution of 1000 μg of phenylcapsaicin and capsaicin was prepared by dissolving 1000 μg in 100 μl of ethanol and 900 μl of sterile water. The stock solutions were sequentially diluted with double and then quadruple volumes of solvent (10% aqueous ethanol solution) to yield 500/125/31.25 (32)/7.81 (8) μg/ml test solutions.
ATCC® BAA 1714™ was used to determine the biofilm inhibition activity. Inducer N-hexanoyl homoserine lactone (C6-HSL) was purchased from Sigma-Aldrich. ATCC® BAA 1714™ was cultivated in Luria-Bertani (LB) medium (LB, 5 g yeast extract, 10 g tryptone, 5 g NaCl, 1 L water) at 37° C. overnight under aerobic conditions.
Crystal violet staining assay was performed as in Experiment 3, using ATCC® BAA 1714™ in 3% DMSO as the control.

The subject of a further experiment is Escherichia coli O157:H7. Put plainly: Inhibition of biofilm formation, crystal violet staining assay. The experiment is classed as cell-based. The conditions noted are these: for Biofilm (OD 595 nm): 24 hr; for Biofilm (OD 595 nm) / biofilm formed (CVSA), in words: 30° C. How it is done:
as §1, §2, §3
A stock solution of 1000 μg of phenylcapsaicin and capsaicin was prepared by dissolving 1000 μg in 100 μL of ethanol and 900 μL of sterile water. The stock solutions were sequentially diluted with double and then quadruple volumes of solvent (10% aqueous ethanol solution) to yield 500/125/31.25 (32)/7.81 (8) μg/ml test solutions.
E. coli O157:H7 was used to determine the biofilm inhibition activity. Inducer N-hexanoyl homoserine lactone (C6-HSL) was purchased from Sigma-Aldrich. E. coli O157:H7 was cultivated in Luria-Bertani (LB) medium (LB, 5 g yeast extract, 10 g tryptone, 5 g NaCl, 1 L water) at 37° C. overnight under aerobic conditions.
Crystal violet staining assay was performed as in Experiment 3, using E. coli O157:H7 in 3% DMSO as the control.

Experiment [3] deals with Salmonella enterica subsp. enterica serovar Paratyphi C (ATCC® BAA1714™). In words: Inhibition of biofilm formation with different capsaicyn compounds, crystal violet staining assay (Example 6). In kind it is cell-based. The conditions noted are these: for Biofilm (OD 595 nm): 24 hr; for interference with the biofilm readings, in words: 125 μg/ml dose. How it is done:
as §1, §2, §3
A stock solution of 500 μg of phenylcapsaicin, capsaicin, compound a, compound b, compound c, was prepared by dissolving 500 μg in 100 μl of ethanol and 900 μl of sterile water. The stock solutions were sequentially diluted with quadruple volumes of solvent (10% aqueous ethanol solution) to yield 125/31.25 (32)/7.81 (8)/1.95 (2) μg/ml test solutions.
ATCC® BAA1714™ was used to determine the biofilm inhibition activity. Inducer N-hexanoyl homoserine lactone (C6-HSL) was purchased from Sigma-Aldrich. ATCC® BAA1714™ was cultivated in Luria-Bertani (LB) medium (LB, 5 g yeast extract, 10 g tryptone, 5 g NaCl, 1 L water) at 37° C. overnight under aerobic conditions.
Crystal violet staining assay was performed as in Experiment 3, using ATCC® BAA1714™ in 3% DMSO as the control.

Structures are written as SMILES. “Also recorded” adds a separate entry of the source. Marks after values point to notes of the source that are not given here.

As to `COc1cc(CNC(=O)CCCC/C=C/C(C)C)ccc1O` [Capsaicin, (E)-N-(4-hydroxy-3-methoxybenzyl)-8-methylnon-6-enamide, reference compound], the “Biofilm (OD 595 nm)” value is recorded as 7.1^a OD 595 nm in experiment [1] (7.81 μg/mL); 7.0^a OD 595 nm in experiment [1] (31.125 μg/mL); 7.2^a OD 595 nm in experiment [1] (125 μg/mL); 8.5^a OD 595 nm in experiment [2] (7.81 μg/mL); 8.1^a OD 595 nm in experiment [2] (31.125 μg/mL); 5.9^a OD 595 nm in the experiment with Escherichia coli O157:H7 (8 μg/mL). Moreover, the “Biofilm (OD 595 nm)” value with Escherichia coli O157:H7 (32 μg/mL) is 5.8^a OD 595 nm; in the experiment on Escherichia coli O157:H7 (125 μg/mL), 5.1^a OD 595 nm; in experiment [3] (2 μg/mL, 30° C.) it was 8.2 OD 595 nm; in experiment [3] (8 μg/mL, 30° C.), 8.6 OD 595 nm; in experiment [3] (32 μg/mL, 30° C.), 8.2 OD 595 nm. The “inhibition of biofilm formation, conclusion in words” value in experiment [1] is given as “did not exhibit any biofilm formation inhibition”. In addition, the “biofilm formed (CVSA), in words” value in experiment [1] and in experiment [2] was “did not show any reduction of biofilm formation” throughout. The “biofilm formation inhibition, conclusion in words” value in experiment [2] (any dose tested) is reported as “did not exhibit any biofilm formation inhibition”. For the same compound, the “biofilm formation inhibition, in words” value with Escherichia coli O157:H7 (125, 32 and 8 μg/ml, any dose tested) is listed as “did not show any reduction of biofilm formation; also recorded: did not exhibit any biofilm formation inhibition”. For the same compound, the “interference with the biofilm readings, in words” value in experiment [3] is reported as “antibacterial interference”. Also, the “biofilm formation inhibition activity, in words” value in experiment [3] (any dose tested (125, 32, 8, 2 μg/ml)) was “did not show reduction biofilm formation”.

`COc1cc(CNC(=O)CCCCC#Cc2ccccc2)ccc1O` [Phenylcapsaicin, N-[(4-hydroxy-3-methoxyphenyl)methyl]-7-phenylhept-6-ynamide]: the “Biofilm (OD 595 nm)” value is reported as 1.7^b OD 595 nm in experiment [1] (7.81 μg/mL); 1.3^b OD 595 nm in experiment [1] (31.125 μg/mL); 1.9^b OD 595 nm in experiment [1] (125 μg/mL); 2.9^b OD 595 nm in experiment [2] (7.81 μg/mL); 3.2^b OD 595 nm in experiment [2] (31.125 μg/mL); 4.9^b OD 595 nm in the experiment on Escherichia coli O157:H7 (8 μg/mL). Moreover, the “Biofilm (OD 595 nm)” value with Escherichia coli O157:H7 (32 μg/mL) was 2.4^b OD 595 nm; in experiment [3] (2 μg/mL, 30° C.) it was 2.5 OD 595 nm; in experiment [3] (8 μg/mL, 30° C.) it was 2.8 OD 595 nm; in experiment [3] (32 μg/mL, 30° C.), 3.4 OD 595 nm. In experiment [1], the “inhibition of biofilm formation, conclusion in words” value is “potent inhibitor of biofilm formation”. Further, the “biofilm formed (CVSA), in words” value in experiment [1] is recorded as “significantly reduced”; in experiment [2] it was “significantly reduced; also recorded: good inhibitor of biofilm formation”; in the experiment on Escherichia coli O157:H7 (8 μg/ml lowest dose tested), “no effect”; with Escherichia coli O157:H7 (125 and 32 μg/ml), “significantly reduced; also recorded: good inhibitor of biofilm formation”; in experiment [3] (32, 8 and 2 μg/ml, 30° C.), “significantly reduced; also recorded: good inhibitor of biofilm formation”. The “interference with the biofilm readings, in words” value in experiment [3] is “antibacterial interference”.

(Values after patent US20240009150A1, “CAPSAICYNS IN THE TREATMENT OF LEAKY GUT” (AXICHEM AB [SE]/[SE], priority 2020, published 2024).)
